Here are results for one compound from US9724380B2, “Method and compositions for synchronizing time of insemination in gilts” (JBS UNITED ANIMAL HEALTH II LLC, priority 2012, dated 2017).

For test [1], the system named is gilts. The test can be described thus: Example 1: ovulation monitored by transrectal ultrasonography after 200 mcg triptorelin gel intravaginally at 96, 120 or 144 h after MATRIX withdrawal. The test is classed as in vivo, swine. The conditions noted are these: 200 mcg T, raw average, PTK 1-07 (rep 3). On the procedure:
All gilts were individually fed MATRIX® as a top-dress for 14 days at the recommended rate of 15 mg/gilt/day. Gilts were withdrawn from MATRIX® feeding (last top feed in the morning on Day 0) and allotted to treatments. Controls were treated with a 1.2% methylcellulose gel formulation without triptorelin at 96 hours following MATRIX® withdrawal (last top-dress). The remaining gilts received 200 mcg triptorelin, as the acetate, in a 1.2% methylcellulose gel formulation intravaginally at various times after MATRIX® withdrawal. The four treatments were: 1) vehicle gel (VG) treatment at 96 hours after MATRIX® withdrawal, 2) triptorelin gel (TG) treatment at 96 hours after MATRIX® withdrawal, 3) TG treatment at 120 hours after MATRIX® withdrawal and 4) TG treatment at 144 hours after MATRIX® withdrawal. All gilts were monitored for their estrous and ovulatory status as described below. Gilts included in replicate 1 were selected from terminal line commercial production gilts located in grow/finish barns. Sexual maturity, as indicated by one or more estrous periods, was not verified prior to the start of MATRIX® feeding. Gilts included in replicate 2 were selected from a maternal line gilt population. Sexual maturity was verified by at least one estrous period verified and recorded prior to starting MATRIX® feeding.
(§1) Triptorelin (pGlu-His-Trp-Ser-Tyr-D-Trp-Leu-Arg-Pro-Gly-NH2) was supplied in the acetate form, from Bachem, Torrance, Calif. (Item H-4075 CGMP grade). Triptorelin gel (200 μg/2 mL) was formulated by Argenta (Auckland, NZ) in a gel composed of Methocel Premium A4000 (Dow Chemical), citrate buffer (pH 5.5), NaCl, methionine and EDTA (as potential stabilizers) and methyl and propyl parabens (as preservatives). Fifty-four milliliters of triptorelin gel (100 mcg triptorelin acetate/mL) was packaged in Amber Borosilicate Glass Serum Vials (610206-50) with a Gray Butyl Pharmaceutical Serum Vial Stopper (73828A-SS) with a Standard Aluminum Seal (SAS20NAT). […] MATRIX® was supplied as the US commercially available form.
The ovulatory status of all gilts was monitored by transrectal ultrasonography. For replicate one, ovulation was monitored two times on Day 5, then three times a day from Day 6 to Day 8. For replicate two, ovulation was monitored three times a day from Day 5 to Day 8. An Aloka 500 ultrasound machine with a 7.5 MHz linear array transducer attached to a fixed-angle PVC stabilizing rod to facilitate insertion into the rectum was used for this purpose. The transducer and PVC rod were coated with a gynecological lubricant and gently inserted into the rectum until the ovaries were visualized, one at a time. The diameters of the three largest follicles were recorded (to the nearest 0.1 mm) at each scanning. A gilt was declared to have ovulated when the number of large follicles (≧6.5 mm) fell to less than 3.
A single 2 mL dose of triptorelin gel or vehicle gel was deposited within approximately 1-2 cm posterior to the cervix with a catheter similar to those used for artificial insemination. The dose was delivered using a standard multi-dose applicator attached to the catheter. A new disposable sheath, which surrounds the catheter, was used for each gilt.
Data were analyzed using the Mixed Models procedures of SAS. Models included main effects of time of treatment following the last feeding of MATRIX®, replicate, and treatment by replicate interaction. Differences between treatments were tested on least squares means estimates using the T test at P<0.05. Data for analysis were tested for assumptions of data normality.

Test [2] concerns gilts. The test can be described thus: Example 5: estrus observation after triptorelin gel dose groups. The test is classed as in vivo, swine. The conditions noted are these: raw average, PTK 2-07. As for the experimental part: All gilts were individually fed MATRIX® as a top-dress for 14 or 15 days at the recommended rate of 15 mg/gilt/day. Gilts were withdrawn from MATRIX® feeding (last top-dress in the morning on Day 0) and allocated to each of the following treatments. Controls were vehicle gel treated (vehicle gel without triptorelin) at 120 (+/−2) hours following MATRIX® withdrawal (last top dress). The other gilts were given 100, 200 or 400 mcg triptorelin as the acetate in a methylcellulose gel formulation 120 (+/−2) hours following MATRIX® withdrawal. The four treatments were: • 1. Vehicle gel (VG): vehicle gel without triptorelin at 120 (+/−2) hours after MATRIX® withdrawal. • 2. TG 100: 100 mcg (2 mL 50 mcg/mL) triptorelin gel at 120 (+/−2) hours after MATRIX® withdrawal. • 3. TG 200: 200 mcg (2 mL 100 mcg/mL) triptorelin gel at 120 (+/−2) hours after MATRIX® withdrawal. • 4. TG 400: 400 mcg (2 mL 200 mcg/mL) triptorelin gel at 120 (+/−2) hours after MATRIX® withdrawal.
as §1, with “(100-400 mcg/2 mL dose)” for “(200 μg/2 mL)”, “methionine,” for “methionine and EDTA (as potential stabilizers)”, “parabens.” for “parabens (as preservatives).”
For post-treatment estrus detection, gilts were housed in individual pens. Boars were housed in separate rooms, and/or at least 12 m away and downwind. To elicit signs of estrus, a mature boar was walked slowly in the alley in front of the gilts' crates, exposing each test gilt to visual, auditory and olfactory signals from the boar for up to 5 minutes. In keeping with standard practice at commercial farms, while the boar was near the front of the gilt's crate, estrus was tested by an experienced person applying back pressure to the midsection of the gilt combined with side rubbing. Estrus was confirmed when a gilt stood rigidly to the back pressure, with no vocalization and with some indication of an ear reflex. Gilts were not exposed to boars during the first three days after withdrawal of MATRIX® (Day 0 to Day 2). Estrus detection was performed daily on all gilts from Day 3 to Day 7.
A single 2 mL dose of triptorelin gel or vehicle gel was deposited within approximately 1-2 cm posterior to the cervix with a catheter similar to those used for artificial insemination. The dose was delivered using a standard multi-dose applicator attached to the catheter. […]

As to `CC(C)C[C@H](NC(=O)[C@@H](Cc1c[nH]c2ccccc12)NC(=O)[C@H](Cc1ccc(O)cc1)NC(=O)[C@H](CO)NC(=O)[C@H](Cc1c[nH]c2ccccc12)NC(=O)[C@H](Cc1c[nH]cn1)NC(=O)[C@@H]1CCC(=O)N1)C(=O)N[C@@H](CCCNC(=N)N)C(=O)N1CCC[C@H]1C(=O)NCC(N)=O` [T, pGlu-His-Trp-Ser-Tyr-D-Trp-Leu-Arg-Pro-Gly-NH2], the “% of Sows Ovulating” value in the test with gilts [1] (128 h post-MATRIX (8 h post-T)) came to 0.0%; with gilts [1] (136 h post-MATRIX (16 h post-T)), 10.0%; in the test with gilts [1] (144 h post-MATRIX (24 h post-T)), 30.0%; in the test on gilts [1] (152 h post-MATRIX (32 h post-T)), 70.0%; in the test with gilts [1] (160 h post-MATRIX (40 h post-T)), 80.0%; in the test with gilts [1] (168 h post-MATRIX (48 h post-T)), 90.0%. Moreover, the “% of Sows Ovulating” value in the test with gilts [1] (176 h post-MATRIX (56 h post-T)) amounted to 100.0%. Further, the “Estrous Expression (%)” value in the test with gilts [2] (100 mcg T at 120 h post-MATRIX) is listed as 75.0%; in the test with gilts [2] (200 mcg T at 120 h post-MATRIX) it was 81.0%.
